4 molecules from PMC6753126, “Bidirectional transport of 2-chloroadenosine by equilibrative nucleoside transporter 4 (hENT4): Evidence for allosteric kinetics at acidic pH” (Scientific Reports, 2019) can be followed below.

Where two headings read alike, the source gives them in different places.

Test [1] concerns the target T1, equilibrative nucleoside transporter 4 (hENT4) (Homo sapiens, UniProt Q7RTT9).
T1 construct: gene SLC29A4
T1 sequence (Q7RTT9 1-530): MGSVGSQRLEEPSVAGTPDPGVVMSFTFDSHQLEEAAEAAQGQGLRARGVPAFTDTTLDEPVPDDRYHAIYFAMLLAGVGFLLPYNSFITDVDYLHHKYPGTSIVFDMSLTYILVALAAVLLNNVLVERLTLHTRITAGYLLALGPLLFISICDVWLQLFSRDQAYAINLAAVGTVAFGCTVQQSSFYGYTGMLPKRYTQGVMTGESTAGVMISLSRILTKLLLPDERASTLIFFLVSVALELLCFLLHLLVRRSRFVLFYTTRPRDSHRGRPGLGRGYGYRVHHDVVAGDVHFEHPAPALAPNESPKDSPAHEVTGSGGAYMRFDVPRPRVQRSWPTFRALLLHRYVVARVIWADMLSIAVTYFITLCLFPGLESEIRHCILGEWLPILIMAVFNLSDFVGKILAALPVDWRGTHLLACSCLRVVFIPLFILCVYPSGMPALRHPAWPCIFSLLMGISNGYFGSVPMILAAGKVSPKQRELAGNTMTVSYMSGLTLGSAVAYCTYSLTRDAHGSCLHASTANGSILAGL
In words: radiolabelled substrate uptake kinetics (Km, pH […] high-affinity component) and efflux in PK15-hENT4 cells. It is filed as cell-based.

The target in test [2] is T1, equilibrative nucleoside transporter 4 (hENT4). Nature of the test: inhibition of [3H]2-chloroadenosine uptake at pH […] in PK15-hENT4 cells. It is filed as cell-based.

Turning to `Nc1nc(Cl)nc2c1ncn2[C@@H]1O[C@H](CO)[C@@H](O)[C@H]1O` [2-CADO, 2-chloroadenosine], the Km in test [1] was approximately 50 µM.

On to `CCN1/C(=C/c2ccc3ccccc3[n+]2CC)C=Cc2ccccc21` [D22, decynium 22], for which, in test [2] (read-out: IC50), the IC50 is approximately 2.3 µM.

For `C[n+]1ccc(-c2ccccc2)cc1` [MPP+, MPP^+], the IC50 in test [2] is 220 µM.

In the case of TC-T6000, the IC50 in test [2] (read-out: IC50) is approximately 2.3 µM.

One may read the Km as the concentration of substrate that gives half-maximal velocity. In general, IC50 refers to the concentration that gives 50% inhibition.
